Experiments:
[1] = target: NAMPT (human, recombinant, C-terminally His-tagged) (Homo sapiens, UniProt P43490); assay: Time-Resolved Fluorescence Resonance Energy Transfer (TR-FRET) Binding Assay of NAMPT; settings: without substrates; 6.8 nM NAMPT, 200 nM probe, 3 hours equilibration
Procedure: Determination of the utility of compounds having Formula (I) as binders to and inhibitors of NAMPT was performed using Time-Resolved Fluorescence Resonance Energy Transfer (TR-FRET) binding assays.
Time-Resolved Fluorescence Resonance Energy Transfer (TR-FRET) Binding Assay of NAMPT
Test compounds were serially diluted (typically 11 half log dilutions) in neat DMSO to 50× final concentrations prior to dilution with assay buffer (50 mM HEPES (NaOH), pH 7.5, 100 mM NaCl, 10 mM MgCl2, 1 mM DTT, 1% Glycerol) to 3× and 6% DMSO. Six μL were transferred to 384-well low-volume plates (Owens Corning #3673). To this, […] of a 1.5× solution containing enzyme, probe and antibody were added. Final concentrations in the 18 μL, reactions were 1× assay buffer, 2% DMSO, 6.8 nM NAMPT (human, recombinant, C-terminally His-tagged), 200 nM probe (a potent nicotinamide-competitive inhibitor conjugated to Oregon Green 488) and 1 nM Tb-anti-His antibody (Invitrogen # PV5895). Reactions were equilibrated at room temperature for 3 hours prior to reading on an Envision multi-label plate reader (Perkin Elmer; Ex=337 nm, Em=520 and 495 nm). Time-resolved FRET ratios (Em520/Em495) were normalized to controls, plotted as a function of compound concentration and fit with the four-parameter logistic equation to determine IC50s.

[2] = target: NAMPT (Homo sapiens, UniProt P43490); assay: TR-FRET Binding Assay of NAMPT with PRPP; settings: with 200 μM PRPP and 2.5 mM ATP; 2 nM NAMPT, 2 nM probe, 16 hours equilibration
Sequence of NAMPT (P43490 whole entry): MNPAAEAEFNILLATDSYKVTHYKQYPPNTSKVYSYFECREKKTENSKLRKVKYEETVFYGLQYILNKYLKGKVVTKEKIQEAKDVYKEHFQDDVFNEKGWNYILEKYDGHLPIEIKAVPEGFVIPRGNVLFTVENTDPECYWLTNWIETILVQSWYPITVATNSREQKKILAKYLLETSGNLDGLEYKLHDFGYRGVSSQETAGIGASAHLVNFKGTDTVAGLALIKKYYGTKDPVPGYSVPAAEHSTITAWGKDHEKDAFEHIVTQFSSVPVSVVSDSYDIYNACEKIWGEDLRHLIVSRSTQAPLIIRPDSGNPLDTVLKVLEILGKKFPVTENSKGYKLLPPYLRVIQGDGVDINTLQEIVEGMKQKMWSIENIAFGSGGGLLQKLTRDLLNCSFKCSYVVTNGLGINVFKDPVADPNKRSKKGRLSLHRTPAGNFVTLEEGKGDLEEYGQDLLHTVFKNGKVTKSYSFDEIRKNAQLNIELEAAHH
Procedure: Time-Resolved Fluorescence Resonance Energy Transfer (TR-FRET) Binding Assay of NAMPT with PRPP
Compound handling and data processing were identical to the assay in the absence of substrates (above). Final concentrations were 1× assay buffer, 2% DMSO, 2 nM NAMPT, 2 nM probe, 1 nM Tb-anti-His antibody (Invitrogen # PV5895), 200 μM PRPP and 2.5 mM ATP. Reactions were equilibrated for 16 hours prior to measurement to allow for potential enzymatic modification of test compounds.

[3] = tested on: PC3 cells; assay: NAMPT Cell Proliferation Assay; assay type: cell-based; settings: Homo sapiens, PC-3, 120 h, 5 days incubation, cell viability by Cell Titer Glo
Summary of the method: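 Proliferation of PC3 cells treated 5 days with a 10-fold compound series (top 10 μM) was quantified by Cell Titer Glo luminescence; IC50s were fitted from percent inhibition.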

Sequence of NAMPT (human, recombinant, C-terminally His-tagged) (P43490 whole entry): as above

SMILES	IC50 [1] [nM]	IC50 [2] [nM]	IC50 [3] [nM]
CC(C)CC(=O)N(Cc1ccc(C#N)cc1)c1ncc(C(=O)Nc2ccc3nccn3c2)s1 [Example 53, 2-[(4-cyanobenzyl)(3-methylbutanoyl)amino]-N-(imidazo[1,2-a]pyridin-6-yl)-1,3-thiazole-5-carboxamide]	4450	14.4	3300
COCCC(=O)N(Cc1ccc(C#N)cc1)c1ncc(C(=O)Nc2ccc3nccn3c2)s1 [Example 54, 2-[(4-cyanobenzyl)(3-methoxypropanoyl)amino]-N-(imidazo[1,2-a]pyridin-6-yl)-1,3-thiazole-5-carboxamide]	363	2.55	303
CC(C)CC(=O)N(Cc1ccc(C#N)cc1)c1ncc(C(=O)NCc2ccc3nccn3c2)s1 [Example 55, 2-[(4-cyanobenzyl)(3-methylbutanoyl)amino]-N-(imidazo[1,2-a]pyridin-6-ylmethyl)-1,3-thiazole-5-carboxamide]	364	1.37	14.6
COCCC(=O)N(Cc1ccc(C#N)cc1)c1ncc(C(=O)NCc2ccc3nccn3c2)s1 [Example 56, 2-[(4-cyanobenzyl)(3-methoxypropanoyl)amino]-N-(imidazo[1,2-a]pyridin-6-ylmethyl)-1,3-thiazole-5-carboxamide]	158	1.07	8.86
CC(C)(C)OC(=O)N1CCC(CCCCNC(=O)Nc2ccc3nccn3c2)CC1 [Example 58, tert-butyl 4-{4-[(imidazo[1,2-a]pyridin-6-ylcarbamoyl)amino]butyl}piperidine-1-carboxylate]	523	1.43	52.6
CC(C)CCNC(=O)c1ccc(NC(=O)NCc2ccc3nccn3c2)cc1 [Example 59, 4-{[(imidazo[1,2-a]pyridin-6-ylmethyl)carbamoyl]amino}-N-(3-methylbutyl)benzamide]	222	0.695	143
O=C(CC1CCCC1)Nc1ccc(NC(=O)NCc2ccc3nccn3c2)cc1 [Example 60, 2-cyclopentyl-N-(4-{[(imidazo[1,2-a]pyridin-6-ylmethyl)carbamoyl]amino}phenyl)acetamide]	8.61	1.49	9.58
COCCC(=O)N(CCC(C)C)c1ncc(C(=O)NCc2ccc3nccn3c2)s1 [Example 61, N-(imidazo[1,2-a]pyridin-6-ylmethyl)-2-[(3-methoxypropanoyl)(3-methylbutyl)amino]-1,3-thiazole-5-carboxamide]	78.2	0.549	6.01
CC(C)OCC(=O)N1CCC(CCCCNC(=O)Nc2ccc3nccn3c2)CC1 [Example 62, 1-imidazo[1,2-a]pyridin-6-yl-3-(4-{1-[(propan-2-yloxy)acetyl]piperidin-4-yl}butyl)urea]	250	0.456	16.5
O=C(NCCCCC1CCN(C(=O)C2COCCO2)CC1)Nc1ccc2nccn2c1 (stereo not drawn) [Example 63, 1-{4-[1-(1,4-dioxan-2-ylcarbonyl)piperidin-4-yl]butyl}-3-imidazo[1,2-a]pyridin-6-ylurea]	636	0.283	16.8
O=C(NCCCCC1CCN(C(=O)CC2CC2)CC1)Nc1ccc2nccn2c1 [Example 64, 1-{4-[1-(cyclopropylacetyl)piperidin-4-yl]butyl}-3-imidazo[1,2-a]pyridin-6-ylurea]	518	0.495	19.8
O=C(NCCCCC1CCN(C(=O)CCC(F)(F)F)CC1)Nc1ccc2nccn2c1 [Example 65, 1-imidazo[1,2-a]pyridin-6-yl-3-{4-[1-(4,4,4-trifluorobutanoyl)piperidin-4-yl]butyl}urea]	773	0.685	65.6
O=C(NCCCCC1CCN(C(=O)C2CCCC2)CC1)Nc1ccc2nccn2c1 [Example 68, 1-{4-[1-(cyclopentylcarbonyl)piperidin-4-yl]butyl}-3-imidazo[1,2-a]pyridin-6-ylurea]	386	0.476	53.8
O=C(NCCCCC1CCN(C(=O)C2CCOCC2)CC1)Nc1ccc2nccn2c1 [Example 69, 1-imidazo[1,2-a]pyridin-6-yl-3-{4-[1-(tetrahydro-2H-pyran-4-ylcarbonyl)piperidin-4-yl]butyl}urea]	676	0.268	16.6
COCCOCC(=O)N1CCC(CCCCNC(=O)Nc2ccc3nccn3c2)CC1 [Example 70, 1-imidazo[1,2-a]pyridin-6-yl-3-(4-{1-[(2-methoxyethoxy)acetyl]piperidin-4-yl}butyl)urea]	710	0.616	27.8
O=C(NCCCCC1CCN(C(=O)CN2CCOCC2)CC1)Nc1ccc2nccn2c1 [Example 71, 1-imidazo[1,2-a]pyridin-6-yl-3-{4-[1-(morpholin-4-ylacetyl)piperidin-4-yl]butyl}urea]	754	0.348	66.7
O=C(NCCCCC1CCN(C(=O)C2CCOC2)CC1)Nc1ccc2nccn2c1 (stereo not drawn) [Example 72, 1-imidazo[1,2-a]pyridin-6-yl-3-{4-[1-(tetrahydrofuran-3-ylcarbonyl)piperidin-4-yl]butyl}urea]	851	0.536	65.9
O=C(NCCCCC1CCN(C(=O)CC2CCOC2)CC1)Nc1ccc2nccn2c1 (stereo not drawn) [Example 73, 1-imidazo[1,2-a]pyridin-6-yl-3-{4-[1-(tetrahydrofuran-3-ylacetyl)piperidin-4-yl]butyl}urea]	605	0.426	59.5
O=C(NCCCCC1CCN(C(=O)C2CCCO2)CC1)Nc1ccc2nccn2c1 (stereo not drawn) [Example 74, 1-imidazo[1,2-a]pyridin-6-yl-3-{4-[1-(tetrahydrofuran-2-ylcarbonyl)piperidin-4-yl]butyl}urea]	356	0.222	14
CC(C)Cn1cc(-c2ccc(C(=O)NCc3ccc4nccn4c3)s2)cn1 [Example 75, N-(imidazo[1,2-a]pyridin-6-ylmethyl)-5-[1-(2-methylpropyl)-1H-pyrazol-4-yl]thiophene-2-carboxamide]	12.2	0.445	1.49
O=C(Cc1ccc(NC(=O)CC2CCCC2)cc1)Nc1ccc2nccn2c1 [Example 76, 2-cyclopentyl-N-{4-[2-(imidazo[1,2-a]pyridin-6-ylamino)-2-oxoethyl]phenyl}acetamide]	993	0.739	185
O=C(CC1CCCO1)Nc1ccc(C(=O)NCc2ccc3nccn3c2)cc1 (stereo not drawn) [Example 77, N-(imidazo[1,2-a]pyridin-6-ylmethyl)-4-[(tetrahydrofuran-2-ylacetyl)amino]benzamide]	56.1	2.88	14.2
O=C(CC1CCOC1)Nc1ccc(C(=O)NCc2ccc3nccn3c2)cc1 (stereo not drawn) [Example 78, N-(imidazo[1,2-a]pyridin-6-ylmethyl)-4-[(tetrahydrofuran-3-ylacetyl)amino]benzamide]	56.5	2.4	40.7
O=C(CC1CCOCC1)Nc1ccc(C(=O)NCc2ccc3nccn3c2)cc1 [Example 79, N-(imidazo[1,2-a]pyridin-6-ylmethyl)-4-[(tetrahydro-2H-pyran-4-ylacetyl)amino]benzamide]	121	6.97	7.45
O=C(CN1CCOCC1)Nc1ccc(C(=O)NCc2ccc3nccn3c2)cc1 [Example 80, N-(imidazo[1,2-a]pyridin-6-ylmethyl)-4-[(morpholin-4-ylacetyl)amino]benzamide]	228	5.71	19.4
O=C(CCC1CCCC1)Nc1ccc(C(=O)NCc2ccc3nccn3c2)cc1 [Example 81, 4-[(3-cyclopentylpropanoyl)amino]-N-(imidazo[1,2-a]pyridin-6-ylmethyl)benzamide]	15.5	2.68	7.1
CC(C)OCC(=O)Nc1ccc(C(=O)NCc2ccc3nccn3c2)cc1 [Example 82, N-(imidazo[1,2-a]pyridin-6-ylmethyl)-4-{[(propan-2-yloxy)acetyl]amino}benzamide]	357	6.42	67.9

Reference: patent US9187472B2 (AbbVie Inc., priority 2012, dated 2015)
